According to ChEMBL document CHEMBL3301361, “Experimental in vitro DMPK and physicochemical data on a set of publicly disclosed compounds”:
Values after ≈ are worked out from the molar mass of the structure shown.

Experiments:
[1] = in vitro; conditions: human, plasma
[2] = in vitro; conditions: human
[3] = physchem; conditions: octan-1-ol/water
[4] = in vitro; conditions: SD, HW or BN, rat, plasma
[5] = physchem; conditions: pH 7.4 buffer

| Compound | fraction unbound at 5 h ([1]; PPB) | microsomal CLint ([2]; liver microsomes) | logD ([3]; pH 7.4, LogD7.4) | fraction unbound at 5 h [4] | further results |
| --- | --- | --- | --- | --- | --- |
| CCCCCCc1nc2c(N)nc3ccccc3c2n1Cc1ccccc1 | 0.0036 | < 3 µL/min/mg | – | – | – |
| O=C(NC1CC1)c1cc(-c2cccs2)on1 | 0.0768 | 38.9 µL/min/mg | 2.54 | – | – |
| O=C(NCCc1ccc(Cl)cc1)c1cccnc1 | – | – | – | 0.0854 | – |
| COc1ccc(-c2ccc3nc(N)sc3c2)cn1 | 0.0383 | 7.76 µL/min/mg | 3.2 | – | – |
| c1nc(Cc2ccsc2)c[nH]1 | – | – | – | 0.371 | – |
| N#Cc1ccc(F)c(-c2cc(C(F)(F)F)ccc2OCC(=O)O)c1 | 0.0293 | – | -0.16 | – | microsomal CLint ([2]; microsomes): < 3 µL/min/mg |
| COc1ccnc(CCc2nc3c(C)ccnc3[nH]2)c1 | 0.197 | – | 2.1 | – | microsomal CLint ([2]; microsomes): < 3 µL/min/mg |
| CN(C)CCn1cc(-c2cc(C(=O)NC[C@H]3CC[C@H](CNC(=O)OC(C)(C)C)CC3)c3ccccc3n2)cn1 | – | – | – | 0.0647 | – |
| CN(C)CCOC1CN(c2cc(C(=O)NC[C@H]3CC[C@H](CNC(=O)OC(C)(C)C)CC3)c3ccccc3n2)C1 | – | – | – | 0.129 | – |
| Cc1ccccc1Nc1nc(N)nc(C)c1Br | – | – | – | 0.0752 | – |
| O=C(NCc1ccccc1Cl)c1cccnc1Oc1ccccc1 | 0.134 | 36 µL/min/mg | 3.68 | – | – |
| COc1ccc(OC)c(CNC(=O)c2cccnc2Oc2ccccc2)c1 | 0.002 | 43.5 µL/min/mg | 3.52 | – | – |
| Cc1ccc2c(c1)c(Sc1cccc(Cl)c1)c(C)n2CC(=O)O | 0.0036 | 12 µL/min/mg | – | – | – |
| Cc1c(S(=O)(=O)c2ccc(Cl)cc2)c2cc(F)ccc2n1CC(=O)O | 0.0043 | < 3 µL/min/mg | -0.16 | – | – |
| COc1cccc(S(=O)(=O)c2c(C)n(CC(=O)O)c3ccc(C)cc23)c1 | 0.0063 | 3 µL/min/mg | -0.42 | – | – |
| CC(C(=O)O[C@@H]1CC[N+](C)(C)C1)(c1ccccc1)C1CCCC1 (stereo not given in full) | – | – | – | 0.299 | – |
| CC(=O)N1CCN(c2nc(NCC(C)c3ccc(Cl)cc3)c3c(n2)C(=O)N(C(C)C)C3)CC1 (stereo not given) | – | – | – | 0.142 | – |
| CC(=O)N1CCN(c2nc(NCc3ccc(OC(F)(F)F)cc3)c3c(n2)C(=O)N(C(C)C)C3)CC1 | – | – | – | 0.151 | – |
| CC(=O)N1CCN(c2nc3c(c(N(C)Cc4cc5ccccc5cn4)n2)CN(C(C)C)C3=O)CC1 | – | – | – | 0.339 | – |
| Cc1cc([C@H](O)[C@](C)(OCc2ccc(-c3ccccc3)cc2)C(=O)NO)no1 | 0.0328 | 15.8 µL/min/mg | 2.88 | – | – |
| CCNC(=O)Nc1sc2ccccc2c1C(=O)N1CCC(N2CCCC3(CCN(CC)C3=O)C2)CC1 (stereo not given) | – | – | – | 0.17 | – |
| N=C(N)c1ccc2[nH]c(-c3n[nH]c(-c4ccccc4)c3O)nc2c1 | – | – | – | 0.119 | – |
| Cc1ncc(-c2cccc3c2C[C@H](NC(=O)c2ccc(OCC(F)(F)F)nc2)CO3)cn1 | – | – | – | 0.0768 | – |
| OCCNC(=S)NCc1cccc(Cl)c1F | – | – | – | 0.16 | – |
| Cc1ccc2c(c1)c(-c1ccnc3c(F)cccc13)c(C)n2CC(=O)O | 0.009 | < 3 µL/min/mg | 0.53 | – | – |
| Cc1nccnc1-c1ccc(CC(=O)N[C@H](C)c2ccc(OCC(F)(F)F)cn2)cc1 | – | – | – | 0.17 | – |
| Cc1cc(-n2cnc3ccc(N[C@@H](C)c4ncc(F)cn4)nc32)n[nH]1 | – | – | – | 0.483 | – |
| O=C(NCc1ccc(OC(F)(F)F)cc1)C1c2ccccc2C(=O)N1CCc1ncccn1 (stereo not given) | – | – | – | 0.129 | – |

| Compound | fraction unbound at 5 h ([1]; PPB) | microsomal CLint ([2]; liver microsomes) | logD ([3]; pH 7.4, LogD7.4) | fraction unbound at 5 h [4] | further results |
| --- | --- | --- | --- | --- | --- |
| COc1ccccc1C(C#N)NC(=O)[C@@H]1CCCC[C@H]1C(=O)N1CCN(Cc2ccc(F)cc2)CC1 (stereo not given in full) | 0.051 | 127 µL/min/mg | 3.57 | – | – |
| O=C(NC[C@@H](O)CN1CCC(Oc2ccc(Cl)c(Cl)c2)CC1)c1cc(=O)[nH]c2ccccc12 | 0.0183 | < 3 µL/min/mg | 3.48 | – | solubility thermodynamic [5]: 15.8 µM (≈ 7.75 µg/mL) |
| C[S+]([O-])Cc1ccc(C(=O)Nc2cccnc2C(=O)NCC2CCOCC2)c2ccccc12 (stereo not given) | – | – | – | 0.154 | – |
| C[S+]([O-])Cc1ccc(C(=O)Nc2nccnc2C(=O)NCC2CCC2)c2ccccc12 (stereo not given) | – | – | – | 0.0988 | – |
| CS(=O)(=O)c1ccc(-c2nnc(/C=C/c3nnc(-c4ccc(C#N)cc4)o3)n2-c2ccccc2Cl)nc1 | 0.0633 | < 3 µL/min/mg | 2.66 | – | – |
| C[C@@H](Oc1ccccc1-c1cccc([N+](=O)[O-])c1)C1=NCCN1 | – | – | – | 0.403 | – |
| CC[C@H](CO)Nc1nc(SCc2ccccc2)nc2nc(N)sc12 | 0.013 | 8.71 µL/min/mg | 3.27 | – | – |
| c1ccc(-c2[nH]nc3ccccc23)cc1 | 0.0307 | – | 3.79 | – | microsomal CLint ([2]; microsomes): < 3 µL/min/mg |
| COc1ccc2c(c1)c(-c1ccnc3cc(Cl)ccc13)c(C)n2CC(=O)O | 0.0031 | 4 µL/min/mg | 1.16 | – | – |
| O=C(NCC12CC3CC(CC(C3)C1)C2)c1cc(N2CCNCC2)ccc1Cl | – | – | – | – | logD ([3]; pH 7.4): 1.77; solubility thermodynamic [5]: 224 µM (≈ 86.9 µg/mL); fraction unbound at 5 h [1]: 0.0268; microsomal CLint ([2]; microsomes): 11 µL/min/mg |
| C[C@H](CO)Nc1nc(SCc2cccc(F)c2F)nc2nc(NC3CC3)sc12 | 0.0122 | 66 µL/min/mg | 4.37 | – | – |
| O=C(O)CSCC(=O)Nc1nc(-c2ccccc2)cs1 | 0.0097 | 17.8 µL/min/mg | – | – | – |
| CC(=O)N[C@@H](Cc1ccccc1)C(=O)N[C@H]1CCCNC(=O)[C@H](CCCNC(=N)N)NC(=O)[C@H](Cc2c[nH]c3ccccc23)NC(=O)[C@@H](CC2CCCCC2)NC(=O)[C@@H]2CCCN2C1=O | – | – | – | 0.163 | – |
| OCC(CO)Nc1nc(SCc2cccc(F)c2F)nc2nc(NC3CC3)sc12 | 0.051 | 46 µL/min/mg | 3.11 | – | – |
| Nc1nc2c(c(N3CC[C@@H](N)C3)n1)CCCc1ccccc1-2 | – | – | – | 0.437 | – |
| O=C1Nc2nc(-c3c(O)cccc3OCC3CC3)cc([C@@H]3CCCNC3)c2CO1 | – | – | – | 0.124 | – |
| O=C(CC12CC3CC(CC(C3)C1)C2)Nc1cccc2c(=O)n(C[C@H]3CCCN3)ccc12 | – | – | – | 0.151 | – |
| Cc1nc(C(F)(F)F)ccc1C(=O)Nc1ccc(Cl)c(-c2nc3ccccc3[nH]2)c1 | – | – | – | 0.0948 | – |
| N#CN=C(N)c1sc(Nc2ccccc2)nc1N | 0.103 | < 3 µL/min/mg | 2.91 | – | – |
| CC1=C(CC(=O)NCc2ccc(C(=N)N)cc2)C(=O)N(NS(=O)(=O)c2c(C)cccc2Cl)CC1 | – | – | – | 0.54 | – |
| N=C(N)c1cc2c(-c3ccccc3)cccc2s1 | 0.101 | 5 µL/min/mg | 1.27 | – | – |
| N#CC1=C2C(=NC1=O)c1cccc3c(N4CCSCC4)ccc2c13 | 0.0139 | 115 µL/min/mg | 3.22 | – | – |
| CN1CCC[C@@H]1Cc1c[nH]c2ccc(Nc3ncccc3[N+](=O)[O-])cc12 | – | – | – | 0.387 | – |
| CC(C)NC(=O)c1ccc2c(Nc3ccc(Cl)cc3)nc(N3CCOCC3)nc2c1 | 0.0051 | < 3 µL/min/mg | 2.78 | – | – |
| C[C@@H]1CN(Cc2ccc(F)cc2)CCN1C(=O)COc1ccc(Cl)cc1NC(N)=O [BX 471 FREE BASE] | – | 21 µL/min/mg | – | – | fraction unbound at 5 h [1]: 0.0205 |
| CNCCC(Oc1ccccc1OC)c1ccccc1 (stereo not given) [NISOXETINE] | 0.483 | < 3 µL/min/mg | 0.22 | – | – |
| COc1cc(NC(C)CCCN)c2ncccc2c1 (stereo not given) [PRIMAQUINE] | 0.403 | < 3 µL/min/mg | – | – | – |
